Source: patent US9346809B2 (LEO PHARMA A/S, priority 2009, dated 2016)

Key:
Format in all cases: biochemical
[1] = biological target: T1, JAK1 (aa 850-1154, catalytic domain, GST-tag) (Homo sapiens, UniProt P23458); test: JAK kinase assay (HTRF, phosphorylation of TK substrate-biotin), JAK1; conditions: ATP at Km (7 μM); read-out: JAK1 kinase inhibitory activity (EC50 indicator)
T1 construct: JAK1 (aa 850-1154) and TYK2 (aa 871-1187) are expressed with an N-terminally fused GST-tag; GST (N); purchased Carna Biosciences, Inc; host or cells: baculovirus expression system
T1 sequence (P23458 850-1154): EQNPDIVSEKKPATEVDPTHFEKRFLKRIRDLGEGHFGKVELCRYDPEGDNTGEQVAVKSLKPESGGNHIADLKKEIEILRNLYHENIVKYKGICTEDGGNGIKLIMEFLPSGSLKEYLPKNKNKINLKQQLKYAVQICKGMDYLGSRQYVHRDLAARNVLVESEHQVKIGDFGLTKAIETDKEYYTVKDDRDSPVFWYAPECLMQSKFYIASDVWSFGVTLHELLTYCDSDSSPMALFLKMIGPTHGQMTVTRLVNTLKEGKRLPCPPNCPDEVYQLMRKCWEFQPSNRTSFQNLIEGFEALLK
Method in brief: (§1)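 Compound was mixed with TK substrate-biotin (1 μM final), then kinase plus ATP at its Km was added and left 20-30 min at room temperature. Detection mix with EDTA, Streptavidin-XL665 and STK Ab Cryptate stopped the reaction; after overnight dark incubation, HTRF was read and EC50 derived.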

[2] = biological target: T2, JAK2 (catalytic domain, His-tag) (Homo sapiens, UniProt O60674); test: JAK kinase assay (HTRF, phosphorylation of TK substrate-biotin), JAK2; conditions: ATP at Km (4 μM); read-out: JAK2 kinase inhibitory activity (EC50 indicator)
T2 construct: All four purified enzymes contain only the catalytic domain; His (N); purchased Carna Biosciences, Inc; host or cells: baculovirus expression system
T2 sequence (O60674 849-1124 limits assumed): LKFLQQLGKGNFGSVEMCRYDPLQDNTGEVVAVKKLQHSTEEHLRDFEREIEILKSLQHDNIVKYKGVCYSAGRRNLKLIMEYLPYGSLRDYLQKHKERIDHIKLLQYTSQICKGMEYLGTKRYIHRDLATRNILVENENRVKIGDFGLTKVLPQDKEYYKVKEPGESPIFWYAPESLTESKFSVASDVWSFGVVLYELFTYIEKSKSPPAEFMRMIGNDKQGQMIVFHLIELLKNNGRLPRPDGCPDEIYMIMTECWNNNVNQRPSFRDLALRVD
Method in brief: as §1

[3] = biological target: T3, JAK3 (catalytic domain, His-tag) (Homo sapiens, UniProt P52333); test: JAK kinase assay (HTRF, phosphorylation of TK substrate-biotin), JAK3; conditions: ATP at Km (2 μM); read-out: JAK3 kinase inhibitory activity (EC50 indicator)
T3 construct: All four purified enzymes contain only the catalytic domain; His (N); purchased Carna Biosciences, Inc; host or cells: baculovirus expression system
T3 sequence (P52333 822-1111 limits assumed): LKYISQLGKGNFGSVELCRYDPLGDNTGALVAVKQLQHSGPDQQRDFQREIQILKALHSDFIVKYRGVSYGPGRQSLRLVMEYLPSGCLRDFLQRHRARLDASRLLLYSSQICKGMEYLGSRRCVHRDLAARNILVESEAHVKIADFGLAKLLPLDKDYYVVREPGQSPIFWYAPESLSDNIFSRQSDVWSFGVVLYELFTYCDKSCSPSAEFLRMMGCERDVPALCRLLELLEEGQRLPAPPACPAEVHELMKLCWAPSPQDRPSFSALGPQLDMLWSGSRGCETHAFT
Method in brief: as §1

[4] = biological target: T4, TYK2 (aa 871-1187, catalytic domain, GST-tag) (Homo sapiens, UniProt P29597); test: JAK kinase assay (HTRF, phosphorylation of TK substrate-biotin), TYK2; conditions: ATP at Km (13 μM); read-out: TYK2 kinase inhibitory activity (EC50 indicator)
T4 construct: JAK1 (aa 850-1154) and TYK2 (aa 871-1187) are expressed with an N-terminally fused GST-tag; GST (N); purchased Carna Biosciences, Inc; host or cells: baculovirus expression system
T4 sequence (P29597 871-1187): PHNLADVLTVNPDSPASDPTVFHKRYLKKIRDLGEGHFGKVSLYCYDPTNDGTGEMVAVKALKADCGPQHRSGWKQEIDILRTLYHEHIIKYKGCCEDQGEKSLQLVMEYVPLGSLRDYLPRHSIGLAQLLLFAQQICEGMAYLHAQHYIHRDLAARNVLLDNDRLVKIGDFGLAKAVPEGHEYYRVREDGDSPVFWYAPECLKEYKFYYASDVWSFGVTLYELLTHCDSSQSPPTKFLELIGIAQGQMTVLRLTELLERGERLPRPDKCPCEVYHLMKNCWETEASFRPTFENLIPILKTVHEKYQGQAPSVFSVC
Method in brief: as §1

EC50 [1] [nM]	EC50 [2] [nM]	EC50 [3] [nM]	EC50 [4] [nM]	SMILES
< 100	< 100	< 100	100 to 500	O=C(c1ccc2[nH]ccc2c1)N1CCN(c2ncnc3[nH]ccc23)CC12CC2 [Example 157, (1H-Indol-5-yl)-[7-(7H-pyrrolo[2,3-d]pyrimidin-4-yl)-4,7-diaza-spiro[2.5]oct-4-yl]-methanone]
100 to 500	< 100	100 to 500	> 500	O=C([C@H]1CC[C@H](O)CC1)N1CCN(c2ncnc3[nH]ccc23)CC12CC2 [Example 158, (4-Hydroxy-cyclohexyl)-[7-(7H-pyrrolo[2,3-d]pyrimidin-4-yl)-4,7-diaza-spiro[2.5]oct-4-yl]-methanone]
< 100	< 100	100 to 500	100 to 500	O=C(c1cccc2[nH]ccc12)N1CCN(c2ncnc3[nH]ccc23)CC12CC2 [Example 159, (1H-Indol-4-yl)-[7-(7H-pyrrolo[2,3-d]pyrimidin-4-yl)-4,7-diaza-spiro[2.5]oct-4-yl]-methanone]
< 100	< 100	100 to 500	100 to 500	O=C(c1cccc(OC(F)(F)F)c1)N1CCN(c2ncnc3[nH]ccc23)CC12CC2 [Example 160, [7-(7H-Pyrrolo[2,3-d]pyrimidin-4-yl)-4,7-diaza-spiro[2.5]oct-4-yl]-(3-trifluoromethoxy-phenyl)-methanone]
< 100	< 100	< 100	< 100	O=C(c1cnc2ccccc2n1)N1CCN(c2ncnc3[nH]ccc23)CC12CC2 [Example 161, [7-(7H-Pyrrolo[2,3-d]pyrimidin-4-yl)-4,7-diaza-spiro[2.5]oct-4-yl]-quinoxalin-2-yl-methanone]
< 100	< 100	100 to 500	> 500	O=C(c1ccc2[nH]cnc2c1)N1CCN(c2ncnc3[nH]ccc23)CC12CC2 [Example 162, (1H-Benzoimidazol-5-yl)-[7-(7H-pyrrolo[2,3-d]pyrimidin-4-yl)-4,7-diaza-spiro[2.5]oct-4-yl]-methanone]
< 100	< 100	> 500	100 to 500	O=C(c1cnc2ccccc2c1)N1CCN(c2ncnc3[nH]ccc23)CC12CC2 [Example 163, [7-(7H-Pyrrolo[2,3-d]pyrimidin-4-yl)-4,7-diaza-spiro[2.5]oct-4-yl]-quinolin-3-yl-methanone]
100 to 500	< 100	100 to 500	> 500	O=C(c1cccc2cccnc12)N1CCN(c2ncnc3[nH]ccc23)CC12CC2 [Example 164, [7-(7H-Pyrrolo[2,3-d]pyrimidin-4-yl)-4,7-diaza-spiro[2.5]oct-4-yl]-quinolin-8-yl-methanone]
< 100	< 100	< 100	100 to 500	N#CC1(C(=O)N2CCN(c3ncnc4[nH]ccc34)CC23CC3)CC1 [Example 165, 1-[7-(7H-Pyrrolo[2,3-d]pyrimidin-4-yl)-4,7-diaza-spiro[2.5]octane-4-carbonyl]-cyclopropanecarbonitrile]
< 100	< 100	100 to 500	> 500	O=C(c1cccc(O)n1)N1CCN(c2ncnc3[nH]ccc23)CC12CC2 [Example 166, (6-Hydroxy-pyridin-2-yl)-[7-(7H-pyrrolo[2,3-d]pyrimidin-4-yl)-4,7-diaza-spiro[2.5]oct-4-yl]-methanone]
< 100	< 100	< 100	100 to 500	N#CCCC(=O)N1CCN(c2ncnc3[nH]ccc23)CC12CC2 [Example 167, 4-Oxo-4-[7-(7H-pyrrolo[2,3-d]pyrimidin-4-yl)-4,7-diaza-spiro[2.5]oct-4-yl]-butyronitrile]
< 100	< 100	100 to 500	> 500	O=C(CCc1ccccc1)N1[C@@H]2CC[C@@H]1CN(c1ncnc3[nH]ccc13)C2 [Example 168, 3-Phenyl-1-[3-(7H-pyrrolo[2,3-d]pyrimidin-4-yl)-3,8-diaza-bicyclo[3.2.1]oct-8-yl]-propan-1-one]
< 100	< 100	< 100	> 500	O=C(c1cc2ccccc2s1)N1[C@@H]2CC[C@@H]1CN(c1ncnc3[nH]ccc13)C2 [Example 169, Benzo[b]thiophen-2-yl-[3-(7H-pyrrolo[2,3-d]pyrimidin-4-yl)-3,8-diaza-bicyclo[3.2.1]oct-8-yl]-methanone]
100 to 500	100 to 500	100 to 500	> 500	O=C(Cc1c[nH]c2ccccc12)N1[C@@H]2CC[C@@H]1CN(c1ncnc3[nH]ccc13)C2 [Example 170, 2-(1H-Indol-3-yl)-1-[3-(7H-pyrrolo[2,3-d]pyrimidin-4-yl)-3,8-diaza-bicyclo[3.2.1]oct-8-yl]-ethanone]
100 to 500	100 to 500	> 500	> 500	O=C(Cc1ccncc1)N1[C@@H]2CC[C@@H]1CN(c1ncnc3[nH]ccc13)C2 [Example 171, 2-Pyridin-4-yl-1-[3-(7H-pyrrolo[2,3-d]pyrimidin-4-yl)-3,8-diaza-bicyclo[3.2.1]oct-8-yl]-ethanone]
> 500	100 to 500	> 500	> 500	O=C(Cc1cccnc1)N1[C@@H]2CC[C@@H]1CN(c1ncnc3[nH]ccc13)C2 [Example 172, 2-Pyridin-3-yl-1-[3-(7H-pyrrolo[2,3-d]pyrimidin-4-yl)-3,8-diaza-bicyclo[3.2.1]oct-8-yl]-ethanone]
< 100	< 100	< 100	100 to 500	N#Cc1cccc(C(=O)N2[C@@H]3CC[C@@H]2CN(c2ncnc4[nH]ccc24)C3)c1 [Example 173, 3-[3-(7H-Pyrrolo[2,3-d]pyrimidin-4-yl)-3,8-diaza-bicyclo[3.2.1]octane-8-carbonyl]-benzonitrile]
< 100	< 100	100 to 500	> 500	N#CCc1ccc(C(=O)N2[C@@H]3CC[C@@H]2CN(c2ncnc4[nH]ccc24)C3)cc1 [Example 175, {4-[3-(7H-Pyrrolo[2,3-d]pyrimidin-4-yl)-3,8-diaza-bicyclo[3.2.1]octane-8-carbonyl]-phenyl}-acetonitrile]
100 to 500	100 to 500	> 500	> 500	CS(=O)(=O)NCCC(=O)N1[C@@H]2CC[C@@H]1CN(c1ncnc3[nH]ccc13)C2 [Example 176, N-{3-Oxo-3-[3-(7H-pyrrolo[2,3-d]pyrimidin-4-yl)-3,8-diaza-bicyclo[3.2.1]oct-8-yl]-propyl}-methanesulfonamide]
100 to 500	100 to 500	100 to 500	> 500	O=C(c1ncco1)N1[C@@H]2CC[C@@H]1CN(c1ncnc3[nH]ccc13)C2 [Example 177, Oxazol-2-yl-[3-(7H-pyrrolo[2,3-d]pyrimidin-4-yl)-3,8-diaza-bicyclo[3.2.1]oct-8-yl]-methanone]
100 to 500	100 to 500	100 to 500	> 500	O=C(c1cccc(-c2ccccc2)c1)N1[C@@H]2CC[C@@H]1CN(c1ncnc3[nH]ccc13)C2 [Example 178, Biphenyl-3-yl-[3-(7H-pyrrolo[2,3-d]pyrimidin-4-yl)-3,8-diaza-bicyclo[3.2.1]oct-8-yl]-methanone]
100 to 500	100 to 500	> 500	> 500	N#Cc1cccc(CC(=O)N2[C@@H]3CC[C@@H]2CN(c2ncnc4[nH]ccc24)C3)c1 [Example 179, 3-{2-Oxo-2-[3-(7H-pyrrolo[2,3-d]pyrimidin-4-yl)-3,8-diaza-bicyclo[3.2.1]oct-8-yl]-ethyl}-benzonitrile]
100 to 500	100 to 500	100 to 500	> 500	N#Cc1ccc(CC(=O)N2[C@@H]3CC[C@@H]2CN(c2ncnc4[nH]ccc24)C3)cc1 [Example 180, 4-{2-Oxo-2-[3-(7H-pyrrolo[2,3-d]pyrimidin-4-yl)-3,8-diaza-bicyclo[3.2.1]oct-8-yl]-ethyl}-benzonitrile]
< 100	< 100	100 to 500	100 to 500	O=C(CCC(F)(F)F)N1[C@@H]2CC[C@H]1CN(c1ncnc3[nH]ccc13)C2 [Example 181, 4,4,4-Trifluoro-1-[3-(7H-pyrrolo[2,3-d]pyrimidin-4-yl)-3,8-diaza-bicyclo[3.2.1]oct-8-yl]-butan-1-one]
